Source: patent US20130137865A1 (TAISHO PHARMACEUTICAL CO., LTD., priority 2010, published 2013)

Each molecule was assayed against T1, rat mGlu2 receptor (Rattus norvegicus, UniProt P31421) (assay: [35S]GTPγS binding test (1), membranes of CHO cells stably expressing rat mGlu2). Conditions: inhibition of glutamic acid (20 μM)-stimulated specific [35S]GTPγS binding.
T1 construct: expressed in transfected cells; host or cells: CHO cells
T1 sequence (P31421 19-872): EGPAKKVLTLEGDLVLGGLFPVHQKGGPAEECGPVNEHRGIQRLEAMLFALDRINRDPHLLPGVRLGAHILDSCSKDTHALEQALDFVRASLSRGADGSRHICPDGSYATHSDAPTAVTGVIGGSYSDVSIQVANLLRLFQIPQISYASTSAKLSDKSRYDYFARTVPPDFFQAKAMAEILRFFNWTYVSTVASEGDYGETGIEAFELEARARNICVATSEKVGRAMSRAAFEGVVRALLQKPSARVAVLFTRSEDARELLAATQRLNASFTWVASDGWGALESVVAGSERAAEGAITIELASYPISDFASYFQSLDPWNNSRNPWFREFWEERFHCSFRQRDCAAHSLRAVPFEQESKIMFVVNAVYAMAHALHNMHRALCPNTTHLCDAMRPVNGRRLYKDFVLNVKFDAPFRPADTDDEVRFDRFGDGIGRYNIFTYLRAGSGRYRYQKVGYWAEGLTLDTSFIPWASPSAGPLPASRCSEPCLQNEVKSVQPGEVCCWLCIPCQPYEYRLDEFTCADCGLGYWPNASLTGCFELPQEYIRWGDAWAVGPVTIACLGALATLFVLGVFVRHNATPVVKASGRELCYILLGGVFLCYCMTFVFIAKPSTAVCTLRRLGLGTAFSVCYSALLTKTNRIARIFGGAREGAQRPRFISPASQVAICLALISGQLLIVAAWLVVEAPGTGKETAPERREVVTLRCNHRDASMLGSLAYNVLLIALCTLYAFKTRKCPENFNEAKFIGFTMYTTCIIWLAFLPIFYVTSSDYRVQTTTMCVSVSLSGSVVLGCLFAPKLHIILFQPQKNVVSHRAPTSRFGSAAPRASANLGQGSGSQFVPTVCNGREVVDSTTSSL
Type: biochemical
Protocol: (Preparation of Crude Membrane Fraction of CHO Cells Stably Expressing the Rat Metabotropic Glutamate Receptor (mGlu2))
(§1) CHO cells stably expressing the rat mGlu2 receptor were cultured in a 10% dialyzed fetal bovine serum-containing Dulbecco's Modified Eagle's Medium [1% proline, 50 units/mL penicillin, 50 μg/mL streptomycin, and 2 mM L-glutamine (to be added when used)] at 37° C. in 5% CO2. Confluent cells were washed with PBS(−) twice, and were then harvested with a cell scraper. Then, the cells were centrifuged at 4° C. at 1000 rpm for 5 minutes to collect. The obtained precipitate was suspended in a 20 mM HEPES buffer (pH 7.4), and then homogenized with a Teflon® homogenizer. The resultant was centrifuged at 4° C. at 48,000×g for 20 minutes to obtain a precipitate again. The obtained precipitate was washed twice by centrifugation, and was then homogenized with the above-mentioned buffer, so as to obtain a crude membrane fraction. The obtained crude membrane fraction was preserved at −80° C.
(§2) The frozen membrane fraction as prepared above was thawed when used, and it was then diluted with a binding test buffer (final concentration: 20 mM HEPES, 100 mM NaCl, 10 mM MgCl2, 8.4 μM GDP, 10 μg/mL saponin, and 0.1% BSA). The compound of the Example was added to a membrane fraction (10 μg protein/assay), and the obtained mixture was then incubated at 30° C. for 20 minutes. Thereafter, glutamic acid (final concentration: 20 μM) and [^35S]GTPγS (final concentration: 0.15 nM) were added to the reaction mixture, and then incubated at 30° C. for 1 hour. After completion of the incubation, the reaction mixture was subjected to filtration over a Whatman GF/C filter that had previously been immersed in a 20 mM HEPES buffer (pH 7.4), and the filter was then washed three times with 300 μL of ice-cold 20 mM HEPES buffer (pH 7.4). A scintillation cocktail was added to the resulting filter, and membrane-bound radioactivity was then measured with a liquid scintillation counter.
(§3) The amount of [^35S]GTPγS bound in the case of carrying out the above described reaction in the absence of glutamic acid was defined as non-specific binding. The difference between such non-specific bound and the amount of [^35S]GTPγS bound in the presence of glutamic acid was defined as specific binding. Using non-linear analysis, a concentration-inhibition curve was produced. The concentration of the compound of each Example that caused 50% inhibition (IC50 value) of specific binding was determined from each concentration-inhibition curve.
`Cn1ncc(-c2nc(-c3cccc(S(N)(=O)=O)c3)no2)c1C#Cc1ccc(C(F)(F)F)cn1` [Example 7, 3-[5-(1-Methyl-5-{[5-(trifluoromethyl)pyridin-2-yl]ethynyl}-1H-pyrazol-4-yl)-1,2,4-oxadiazol-3-yl]benzenesulfonamide] was tested, and the IC50 was 17.6 nM.
`Cn1ncc(-c2nc(-c3cccc(S(N)(=O)=O)c3)no2)c1-c1cnn(-c2ccc(Cl)cc2)c1` [Example 25, 3-{5-[1′-(4-Chlorophenyl)-2-methyl-1′H,2H-3,4′-bipyrazol-4-yl]-1,2,4-oxadiazol-3-yl}benzenesulfonamide] was tested, and the IC50 was 27.5 nM.
`Cn1ncc(-c2nc(-c3cccc(S(N)(=O)=O)c3)no2)c1COc1ccc(C(F)(F)F)cc1` [Example 37, 3-[5-(1-Methyl-5-{[4-(trifluoromethyl)phenoxy]methyl}-1H-pyrazol-4-yl)-1,2,4-oxadiazol-3-yl]benzenesulfonamide] was tested, and the IC50 was 1.29 nM.

These molecules were tested against T2, human mGlu2 receptor (Homo sapiens, UniProt Q14416) (assay: [35S]GTPγS binding test (2), membranes of CHO cells stably expressing human mGlu2). Conditions: inhibition of glutamic acid (20 μM)-stimulated specific [35S]GTPγS binding.
T2 construct: expressed in transfected cells; host or cells: CHO cells
T2 sequence (Q14416 19-872): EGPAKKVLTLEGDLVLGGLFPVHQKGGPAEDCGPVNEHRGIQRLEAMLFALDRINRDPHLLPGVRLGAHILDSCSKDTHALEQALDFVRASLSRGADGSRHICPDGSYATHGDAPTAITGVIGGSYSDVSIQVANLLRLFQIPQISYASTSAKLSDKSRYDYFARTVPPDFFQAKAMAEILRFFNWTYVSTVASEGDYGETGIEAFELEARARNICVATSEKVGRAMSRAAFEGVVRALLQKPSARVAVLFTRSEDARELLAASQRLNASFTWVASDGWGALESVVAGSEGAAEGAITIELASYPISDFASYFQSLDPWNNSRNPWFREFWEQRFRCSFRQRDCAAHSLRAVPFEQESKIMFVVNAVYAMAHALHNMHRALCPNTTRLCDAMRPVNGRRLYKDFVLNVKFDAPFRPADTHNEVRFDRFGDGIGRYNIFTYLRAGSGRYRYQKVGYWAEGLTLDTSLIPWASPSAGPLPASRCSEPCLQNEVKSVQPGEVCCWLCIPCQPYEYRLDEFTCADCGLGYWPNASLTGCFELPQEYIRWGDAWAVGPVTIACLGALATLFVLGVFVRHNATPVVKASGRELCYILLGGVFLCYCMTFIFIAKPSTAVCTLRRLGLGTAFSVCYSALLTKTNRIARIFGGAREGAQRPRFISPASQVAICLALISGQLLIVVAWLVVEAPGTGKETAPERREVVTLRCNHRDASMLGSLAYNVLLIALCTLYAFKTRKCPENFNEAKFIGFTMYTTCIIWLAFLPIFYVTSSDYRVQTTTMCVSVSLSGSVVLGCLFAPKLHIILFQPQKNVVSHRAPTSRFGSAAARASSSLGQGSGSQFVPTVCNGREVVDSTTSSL
Type: biochemical
Protocol: (Preparation of Crude Membrane Fraction of CHO Cells Stably Expressing the Human Metabotropic Glutamate Receptor (mGlu2))
as §1, with “human” for “rat”, “streptomycin, 400 μg/mL hygromycin B,” for “streptomycin,”
as §2, §3
`Cn1ncc(-c2coc(-c3cccc(S(N)(=O)=O)c3)n2)c1COc1ccc(C(F)(F)F)cc1` [Example 203, 3-[4-(1-Methyl-5-{[4-(trifluoromethyl)phenoxy]methyl}-1H-pyrazol-4-yl)-1,3-oxazol-2-yl]benzenesulfonamide] showed an IC50 of 3.85 nM.
For `Cn1ncc(-c2nc(-c3cnc(N)nc3)no2)c1COc1ccc(C(F)(F)F)cn1` [Example 218, 5-{5-[1-Methyl-5-({[5-(trifluoromethyl)pyridin-2-yl]oxy}methyl)-1H-pyrazol-4-yl]-1,2,4-oxadiazol-3-yl}pyrimidine-2-amine], the IC50 was 68 nM.
Work on `Cn1ncc(-c2cc(-c3cccc(S(N)(=O)=O)c3)on2)c1COc1ccc(F)cn1` [Example 204, 3-[3-(5-{[(5-Fluoropyridin-2-yl)oxy]methyl}-1-methyl-1H-pyrazol-4-yl)-1,2-oxazol-5-yl]benzenesulfonamide] yielded an IC50 of 50.8 nM.
For `Cn1ncc(-c2nnc(-c3cccc(S(N)(=O)=O)c3)o2)c1COc1ccc(C(F)(F)F)cn1` [Example 187, 3-{5-[1-Methyl-5-({[5-(trifluoromethyl)pyridin-2-yl]oxy}methyl)-1H-pyrazol-4-yl]-1,3,4-oxadiazol-2-yl}benzenesulfonamide], the IC50 was 21.5 nM.
`Cn1ncc(-c2nc(-c3cncc(S(N)(=O)=O)c3)no2)c1COc1ccc(C(F)(F)F)cn1` [Example 224, 5-{5-[1-Methyl-5-({[5-(trifluoromethyl)pyridin-2-yl]oxy}methyl)-1H-pyrazol-4-yl]-1,2,4-oxadiazol-3-yl}pyridine-3-sulfonamide] showed an IC50 of 3.64 nM.
In the case of `CNS(=O)(=O)c1cccc(-c2noc(-c3cnn(C)c3COc3ccccn3)n2)c1` [Example 146, N-Methyl-3-(5-{1-methyl-5-[(pyridin-2-yloxy)methyl]-1H-pyrazol-4-yl}-1,2,4-oxadiazol-3-yl)benzenesulfonamide], the IC50 is reported as 13.2 nM.
In the case of `Cn1ncc(-c2nc(-c3cccc(S(N)(=O)=O)c3)no2)c1COc1ccccn1` [Example 75, 3-(5-{1-Methyl-5-[(pyridin-2-yloxy)methyl]-1H-pyrazol-4-yl}-1,2,4-oxadiazole-3-yl)benzenesulfonamide], the IC50 is reported as 36.7 nM.
Work on `CC(=O)Nc1cc(-c2noc(-c3cnn(C)c3COc3ccc(C(F)(F)F)cc3)n2)ccn1` [Example 208, N-{4-[5-(1-methyl-5-{[4-(trifluoromethyl)phenoxy]methyl}-1H-pyrazol-4-yl)-1,2,4-oxadiazol-3-yl]pyridin-2-yl}acetamide] yielded an IC50 of 29.1 nM.
Molecule `Cn1ncc(-c2nc(-c3cccc(N)c3)no2)c1COc1ccc(C(F)(F)F)cn1` [Example 220, 3-{5-[1-Methyl-5-({[5-(trifluoromethyl)pyridin-2-yl]oxy}methyl)-1H-pyrazol-4-yl]-1,2,4-oxadiazol-3-yl}aniline] has an IC50 of 32.2 nM.
Work on `Cn1ncc(-c2nc(-c3cccc(S(N)(=O)=O)c3)no2)c1COc1ncc(F)cc1Br` [Example 214, 3-[5-(5-{[(3-Bromo-5-fluoropyridin-2-yl)oxy]methyl}-1-methyl-1H-pyrazol-4-yl)-1,2,4-oxadiazol-3-yl]benzenesulfonamide] yielded an IC50 of 26.4 nM.
With `Cn1ncc(-c2nnc(-c3ccc(S(N)(=O)=O)cc3)o2)c1COc1ccc(C(F)(F)F)cc1` [Example 190, 4-[5-(1-Methyl-5-{[4-(trifluoromethyl)phenoxy]methyl}-1H-pyrazol-4-yl)-1,3,4-oxadiazol-2-yl]benzenesulfonamide] the IC50 was 67.2 nM.
`Cn1ncc(-c2nc(-c3cncc(S(C)(=O)=O)c3)no2)c1COc1ccc(C(F)(F)F)cn1` [Example 223, 2-[(1-Methyl-4-{3-[5-(methylsulfonyl)pyridin-3-yl]-1,2,4-oxadiazol-5-yl}-1H-pyrazol-5-yl)methoxy]-5-(trifluoromethyl)pyridine] was tested, and the IC50 was 17.1 nM.
`Cn1ncc(-c2nc(-c3cccc(S(C)(=O)=O)c3)no2)c1COc1ccc(C(F)(F)F)cn1` [Example 216, 2-[(1-Methyl-4-{3-[3-(methylsulfonyl)phenyl]-1,2,4-oxadiazol-5-yl}-1H-pyrazol-5-yl)methoxy]-5-(trifluoromethyl)pyridine] showed an IC50 of 4.32 nM.
`Cn1ncc(-c2nc(-c3cccc(S(N)(=O)=O)c3)no2)c1COc1ccc(F)cn1` [Example 72, 3-[5-(5-{[(5-Fluoropyridin-2-yl)oxy]methyl}-1-methyl-1H-pyrazol-4-yl)-1,2,4-oxadiazol-3-yl]benzenesulfonamide] was tested, and the IC50 was 10.3 nM.
Work on `CC(=O)Nc1cc(-c2noc(-c3cnn(C)c3COc3ccc(C(F)(F)F)cn3)n2)ccn1` [Example 217, N-(4-{5-[1-Methyl-5-({[5-(trifluoromethyl)pyridin-2-yl]oxy}methyl)-1H-pyrazol-4-yl]-1,2,4-oxadiazol-3-yl}pyridin-2-yl)acetamide] yielded an IC50 of 14.9 nM.
For `Cn1nc(-c2cccc(S(N)(=O)=O)c2)nc1-c1cnn(C)c1COc1ccc(C(F)(F)F)cc1` [Example 233, 3-[1-Methyl-5-(1-methyl-5-{[4-(trifluoromethyl)phenoxy]methyl}-1H-pyrazol-4-yl)-1H-1,2,4-triazol-3-yl]benzenesulfonamide], the IC50 was 80.6 nM.
`Cn1ncc(-c2nc(-c3ccc(N)nc3)no2)c1COc1ccc(C(F)(F)F)cc1` [Example 92, 5-[5-(1-Methyl-5-{[4-(trifluoromethyl)phenoxy]methyl}-1H-pyrazol-4-yl)-1,2,4-oxadiazol-3-yl]pyridine-2-amine] was tested, and the IC50 was 28.6 nM.
`CN(C)CCNS(=O)(=O)c1cccc(-c2noc(-c3cnn(C)c3COc3ccc(F)cn3)n2)c1` [Example 85, N-[2-(Dimethylamino)ethyl]-3-[5-(5-{[(5-fluoropyridin-2-yl)oxy]methyl}-1-methyl-1H-pyrazol-4-yl)-1,2,4-oxadiazol-3-yl]benzenesulfonamide] was tested, and the IC50 was 13.6 nM.
In the case of `Cn1ncc(-c2nc(-c3ccc(S(C)(=O)=O)cc3)no2)c1COc1ccc(C(F)(F)F)cn1` [Example 215, 2-[(1-Methyl-4-{3-[4-(methylsulfonyl)phenyl]-1,2,4-oxadiazol-5-yl}-1H-pyrazol-5-yl)methoxy]-5-(trifluoromethyl)pyridine], the IC50 is reported as 49.1 nM.
Work on `Cn1ncc(-c2nc(-c3cc[nH]c(=O)c3)no2)c1COc1ccc(C(F)(F)F)cn1` [Example 228, 4-{5-[1-Methyl-5-({[5-(trifluoromethyl)pyridin-2-yl]oxy}methyl)-1H-pyrazol-4-yl]-1,2,4-oxadiazol-3-yl}pyridine-2(1H)-one] yielded an IC50 of 56.9 nM.
`Cn1ncc(-c2nc(-c3cccc(S(N)(=O)=O)c3)no2)c1COc1ccc(C(F)(F)F)cn1` [Example 122, 3-{5-[1-Methyl-5-({[5-(trifluoromethyl)pyridin-2-yl]oxy}methyl)-1H-pyrazol-4-yl]-1,2,4-oxadiazol-3-yl}benzenesulfonamide] gave an IC50 of 1.33 nM.
`CNCCNS(=O)(=O)c1cccc(-c2noc(-c3cnn(C)c3COc3ccc(F)cn3)n2)c1` [Example 232, 3-[5-(5-{[(5-Fluoropyridin-2-yl)oxy]methyl}-1-methyl-1H-pyrazol-4-yl)-1,2,4-oxadiazol-3-yl]-N-[2-(methylamino)ethyl]benzenesulfonamide] was tested, and the IC50 was 33.2 nM.
